For data set [1] the following is noted: mouse, in vivo, sc, 386 nmol/kg.
Method: (§1) Plasma concentrations of compounds were determined by LC/MS methods. Each method measured the intact compound; peptide plus linked time extension. For each assay, the compound and an analog, used as an internal standard (IS), were extracted from 100% mouse, rat or monkey plasma (25 μl) using acetonitrile. Two distinct layers were formed upon centrifugation with the compound and the IS located in the supernatant layer. An aliquot of the supernatant (80 μl) was transferred to a Thermo Protein Precipitation Plate with water (150 μl) and formic acid (25 μl) followed by mixing. A final 31% acetonitrile in 10% formic acid sample (10 μl) was loaded onto a Supelco Analytical Discovery BIO Wide Pore C5-3 column (5 cm×1 mm, 3 μm). The column effluent was directed into a Thermo Q-Exactive mass spectrometer for detection and quantitation.
Male CD-1 mice were administered a single subcutaneous dose (350, 386 or 388 nmol/kg) of a compound described herein in 20 mM Tris-HCl Tris Buffer (pH 7 or 8) at a volume of 0.05 or 0.06 mL/animal. Blood was collected at 6, 12, 24, 48, 72, 96, 120 and 168 hours postdose for pharmacokinetic characterization (101).
The target in data set [2] is T1, human CRHR2b (Homo sapiens, UniProt Q13324).
T1 construct: expressed in transfected cells; host or cells: Chinese Hamster Ovary (CHO) cells, transient transfection
T1 sequence (Q13324 1-438 isoform Q13324-2): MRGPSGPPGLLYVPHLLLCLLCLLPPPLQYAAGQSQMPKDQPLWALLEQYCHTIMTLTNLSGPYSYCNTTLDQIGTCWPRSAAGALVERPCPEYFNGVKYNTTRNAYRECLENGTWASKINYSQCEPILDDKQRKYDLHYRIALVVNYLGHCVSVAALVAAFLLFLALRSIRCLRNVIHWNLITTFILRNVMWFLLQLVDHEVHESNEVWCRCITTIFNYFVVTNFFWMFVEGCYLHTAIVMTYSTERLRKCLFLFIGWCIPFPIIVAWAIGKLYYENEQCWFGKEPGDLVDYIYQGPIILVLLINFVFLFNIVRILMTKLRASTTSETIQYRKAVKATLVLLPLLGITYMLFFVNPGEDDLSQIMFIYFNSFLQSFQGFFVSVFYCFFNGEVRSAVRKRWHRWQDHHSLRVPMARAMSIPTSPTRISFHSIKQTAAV
Kind of data set: human CRHR2b cell-based cAMP assay. Particulars: cAMP assay, CHO cells transfected with human CRHR2b; mean ± SEM of runs; read-out: hCRHR2b Average EC50. Summed up: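 ED50 values are means ± SEM over several runs, curve-fitted from cAMP in pmol, calibrated against unlabeled-cAMP standards. Detection was HTRF competition, ratio 665/620 nm, after 30 min agonist exposure at 37 °C.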
In general terms: Cyclic AMP is a second messenger, typically raised through Gs and lowered through Gi signalling.

The conditions of data set [3]: cynomolgus monkey, in vivo, sc, 96.4 nmol/kg.
Method: as §1
(§2) Male Cynomolgus monkeys were administered a single subcutaneous dose or intravenous dose (96.4 nmol/kg) of a compound described herein in 20 mM Tris-HCl Buffer (pH 7) at a volume of 1 mL/kg. Blood was collected from each animal at 2, 6, 24, 48, 72, 96, 168, 240, 336, 408, and 504 hours postdose for pharmacokinetic characterization.
(§3) Male Cynomolgus monkeys were also administered a single subcutaneous dose (50 nmol/kg) of a compound described herein in 20 mM Tris-HCl Buffer (pH 8) at a volume of 0.26 mL/kg. Blood was collected from each animal at 3, 6, 12, 24, 48, 72, 96, 120, 168, 192, 240, 336, 408, and 504 hours postdose for pharmacokinetic characterization.
The subject of data set [4] is remnant kidney mice. Kind of data set: Mouse remnant kidney model of hypertensive nephropathy (Example 4, 8 weeks). Format: in vivo. To be noted: 2.6 nmol/kg dose group. Here is the method:
A mouse remnant kidney model (“remnant”) involving surgical reduction of ¾ of the entire renal mass is used as a preclinical model of hypertensive renal disease (Kidney Int. 64(1):350-5, (2003)).
Surgical reduction of renal mass (N=32 mice) (obtained by Taconic, Inc.) is performed by Taconic, Inc. in male 129S6 mice at 9-10 weeks of age. Randomization into 4 equivalent groups of 8 remnant kidney mice is done at 17 weeks post-surgery by urine albumin to creatinine ratio (ACR) and body weight. […]
Body weight is determined at baseline and at termination with a Metler Toledo Balance.
The heart and kidney are removed at necropsy and weighed on a Metler Toledo Balance. […] Serum is analyzed for creatinine on a Roche Hitachi Modular Analytics P analyzer with reagents from Roche. […]
Urine albumin and creatinine are determined on a Roche Hitachi Modular Analytics P analyzer. Urine creatinine is determined with the Creatinine Plus reagent by Roche. […]
Remnant kidneys are removed at study termination, fixed in formalin and processed for paraffin sectioning according to standard methodology. Sections of kidney are evaluated for renal lesions by a board certified pathologist. […]
Pathology data are statistically evaluated with R software by fitting an ordered logit model to the categorical scores, and then comparing the differences between different treatment groups. […]

Data set [5] in a line: in vivo. Particulars: male, cynomolgus monkey, sc, 50 nmol/kg.
Method: as §1, §2, §3

Broadly, the CL/F is the apparent clearance, not corrected for the fraction that reaches the circulation. By half-life is commonly meant the time needed for the level to fall by half in the phase considered. A low value points to fast loss. As a reminder, the EC50 is the midpoint of the concentration-response curve.

Where two headings read alike, the source gives them in different places. Starred links: 1 amine or outer side, 2 acyl side, 3 side chain; linkers in the order of their positions; H or OH if unused. Non-standard residues stand in square brackets, D forms with d. Residues, ends and D or L forms follow the SMILES beside them. Groups on a side chain read outwards from the residue. *: point of attachment. C20 diacid = O=C(O)CCCCCCCCCCCCCCCCCCC(=O)*; C18 diacid = O=C(O)CCCCCCCCCCCCCCCCC(=O)*; γGlu = O=C(O)[C@H](CCC(=O)[*:2])N[*:1]; NMeI = CC[C@H](C)[C@H](NC)C(=O)O; AEEA = NCCOCCOCC(=O)O

`CC[C@H](C)[C@H](NC(C)=O)C(=O)N[C@H](C(=O)N[C@@H](CC(C)C)C(=O)N[C@@H](CO)C(=O)N[C@@H](CC(C)C)C(=O)N[C@@H](CC(=O)O)C(=O)N[C@H](C(=O)N1CCC[C@H]1C(=O)N[C@H](C(=O)NCC(=O)N[C@@H](CC(C)C)C(=O)N[C@@H](CC(C)C)C(=O)N[C@@H](CCC(N)=O)C(=O)N[C@H](C(=O)N[C@@H](CC(C)C)C(=O)N[C@@H](CC(C)C)C(=O)N[C@@H](CCC(=O)O)C(=O)N[C@@H](CCC(N)=O)C(=O)N[C@@H](CCC(=O)O)C(=O)N[C@@H](CCCCN)C(=O)N[C@@H](CCC(N)=O)C(=O)N[C@@H](CCC(=O)O)C(=O)N[C@@H](CCCCN)C(=O)N[C@@H](CCC(=O)O)C(=O)N[C@@H](CCCCN)C(=O)N[C@@H](CCC(N)=O)C(=O)N[C@@H](CCC(N)=O)C(=O)N[C@@H](C)C(=O)N[C@@H](CCCCNC(=O)COCCOCCNC(=O)COCCOCCNC(=O)CC[C@H](NC(=O)CC[C@H](NC(=O)CCCCCCCCCCCCCCCCCCC(=O)O)C(=O)O)C(=O)O)C(=O)N[C@H](C(=O)N[C@@H](CC(N)=O)C(=O)N[C@@H](C)C(=O)N[C@@H](CCC(N)=O)C(=O)N[C@H](C(=O)N[C@@H](CC(C)C)C(=O)N[C@@H](C)C(=O)N[C@@H](CCC(N)=O)C(=O)N[C@H](C(N)=O)C(C)C)[C@@H](C)CC)[C@@H](C)O)[C@@H](C)CC)[C@@H](C)CC)C(C)C)C(C)C` [Example 2] (Ac-IVLSLDVPIGLLQILLEQEKQEKEKQQAK([AEEA-AEEA-γGlu-γGlu-C20 diacid])TNAQILAQV-NH2): the figures for the apparent clearance CL/F in data set [1] and in data set [3] (CL/F) were 199 mL/day/kg and 9.84 mL/day/kg, respectively. Further, the half-life in data set [1] was 20 h; in data set [3] (T1/2), 97 h. For the same compound, the concentration giving a half-maximal response (EC50) in data set [2] was 1.2 ± 0.52 nM.
Take `CC[C@H](C)[C@H](NC)C(=O)N[C@H](C(=O)N[C@@H](CC(C)C)C(=O)N[C@@H](CO)C(=O)N[C@@H](CC(C)C)C(=O)N[C@@H](CC(=O)O)C(=O)N[C@H](C(=O)N1CCC[C@H]1C(=O)N[C@H](C(=O)NCC(=O)N[C@@H](CC(C)C)C(=O)N[C@@H](CC(C)C)C(=O)N[C@@H](CCC(N)=O)C(=O)N[C@H](C(=O)N[C@@H](CC(C)C)C(=O)N[C@@H](CC(C)C)C(=O)N[C@@H](CCC(=O)O)C(=O)N[C@@H](CCC(N)=O)C(=O)N[C@@H](CCC(=O)O)C(=O)N[C@@H](CCCCN)C(=O)N[C@@H](CCC(N)=O)C(=O)N[C@@H](CCC(=O)O)C(=O)N[C@@H](CCCCN)C(=O)N[C@@H](CCC(=O)O)C(=O)N[C@@H](CCCCN)C(=O)N[C@@H](CCC(N)=O)C(=O)N[C@@H](CCC(N)=O)C(=O)N[C@@H](C)C(=O)N[C@@H](CCCCNC(=O)COCCOCCNC(=O)COCCOCCNC(=O)CC[C@H](NC(=O)CC[C@H](NC(=O)CCCCCCCCCCCCCCCCC(=O)O)C(=O)O)C(=O)O)C(=O)N[C@H](C(=O)N[C@@H](CC(N)=O)C(=O)N[C@@H](C)C(=O)N[C@@H](CCC(N)=O)C(=O)N[C@H](C(=O)N[C@@H](CC(C)C)C(=O)N[C@@H](C)C(=O)N[C@@H](CCC(N)=O)C(=O)N[C@H](C(N)=O)C(C)C)[C@@H](C)CC)[C@@H](C)O)[C@@H](C)CC)[C@@H](C)CC)C(C)C)C(C)C` [Example 3] (H-[NMeI]VLSLDVPIGLLQILLEQEKQEKEKQQAK([AEEA-AEEA-γGlu-γGlu-C18 diacid])TNAQILAQV-NH2): the half-maximal effective concentration (EC50) in data set [2] turned out to be 2 ± 1.11 nM.
`CC[C@H](C)[C@H](NC)C(=O)N[C@H](C(=O)N[C@@H](CC(C)C)C(=O)N[C@@H](CO)C(=O)N[C@@H](CC(C)C)C(=O)N[C@@H](CC(=O)O)C(=O)N[C@H](C(=O)N1CCC[C@H]1C(=O)N[C@H](C(=O)NCC(=O)N[C@@H](CC(C)C)C(=O)N[C@@H](CC(C)C)C(=O)N[C@@H](CCC(N)=O)C(=O)N[C@H](C(=O)N[C@@H](CC(C)C)C(=O)N[C@@H](CC(C)C)C(=O)N[C@@H](CCC(=O)O)C(=O)N[C@@H](CCC(N)=O)C(=O)N[C@@H](CCC(=O)O)C(=O)N[C@@H](CCCCN)C(=O)N[C@@H](CCC(N)=O)C(=O)N[C@@H](CCC(=O)O)C(=O)N[C@@H](CCCCN)C(=O)N[C@@H](CCC(=O)O)C(=O)N[C@@H](CCCCN)C(=O)N[C@@H](CCC(N)=O)C(=O)N[C@@H](CCC(N)=O)C(=O)N[C@@H](C)C(=O)N[C@@H](CCCCNC(=O)COCCOCCNC(=O)COCCOCCNC(=O)CC[C@H](NC(=O)CC[C@H](NC(=O)CCCCCCCCCCCCCCCCCCC(=O)O)C(=O)O)C(=O)O)C(=O)N[C@H](C(=O)N[C@@H](CC(N)=O)C(=O)N[C@@H](C)C(=O)N[C@@H](CCC(N)=O)C(=O)N[C@H](C(=O)N[C@@H](CC(C)C)C(=O)N[C@@H](C)C(=O)N[C@@H](CCC(N)=O)C(=O)N[C@H](C(N)=O)C(C)C)[C@@H](C)CC)[C@@H](C)O)[C@@H](C)CC)[C@@H](C)CC)C(C)C)C(C)C` [Example 4] (H-[NMeI]VLSLDVPIGLLQILLEQEKQEKEKQQAK([AEEA-AEEA-γGlu-γGlu-C20 diacid])TNAQILAQV-NH2): the “deaths during the study” value in data set [4] is on record as “one”. The compound further gave an apparent clearance (CL/F) in data set [5] (CL/F) of 23.3 mL/day/kg. Moreover, in data set [5] (T1/2), the half-life is 79 h. Further, in data set [2], the EC50 was determined as 1.85 ± 0.51 nM.

Source of the values: patent US10894817B2, “Fatty acid modified urocortin-2 analogs for the treatment of diabetes and chronic kidney disease” (priority 2016, dated 2021).
